The NIST ThermoML archive (doi:10.1021/je050316s)
± gives the expanded uncertainty stated by the source.

Columns and labels:
[1] = 101.33 kPa, Liquid
[2] = refractive index (Na D-line) (dimensionless); settings: 101.33 kPa, Liquid, Standard Abbe refractometry

SMILES | mass density ([1]; 298.15 K) [kg/m3] | mass density ([1]; 303.15 K) [kg/m3] | refractive index ([2]; 298.15 K) | mass density ([1]; 293.15 K) [kg/m3] | refractive index ([2]; 293.15 K)
CCCCCCC [heptane] | 679.43 ± 0.44 | 675.32 ± 0.44 | 1.3853 ± 0.0004 |  | 
CCCCCCCCC [nonane] |  | 710.05 ± 0.38 |  | 719.13 ± 0.38 | 1.4055 ± 0.0004
Nc1ccccc1 [aniline] |  | 1012.94 ± 0.27 |  | 1021.72 ± 0.27 | 1.5862 ± 0.0004
